B1: Pep-2 (peptide)
peptide: EGEYE

Key:
[1] = molecular target: 1,4-dihydroxy-2-naphthoyl coenzyme A thioesterase from S. aureus (S. aureus); test: crystal structure; space group P2_(1), four molecules in the asymmetric unit; crystals from 100 mM HEPES-Na+ pH 7.0, 1.0 M lithium sulphate, 293 K; 1.3 Å
[2] = molecular target: 1,4-dihydroxy-2-naphthoyl coenzyme A thioesterase from S. aureus (S. aureus); test: DLS + SAXS; SaDHNA at 0.8 to 2.5 mg/ml in 100 mM sodium phosphate buffer pH 6.0, 150 mM NaCl, 10 °C; ab initio model with GASBOR
[3] = system: SaDHNA WT (DHNA Coenzyme-A thioesterase); test: Thioesterase activity of SaDHNA wild type (DTNB/TNB, 412 nm); assay type: biochemical, Staphylococcus aureus
Description: (§1) To obtain some initial information about SaDHNA thioesterase substrate specificity, two different substrates classified according to their CoA chain length and unsaturation degree were assessed. The longest acyl-CoA chain substrate contained eighteen acyl saturated chain stearoyl-CoA (C18:0), while the shortest chain contained four acyl chain crotonyl-CoA with one unsaturation (C4:1). Thioesterase activity was observed by the increase in free thiol-CoA thioester hydrolysis formation of the 2-nitro-5-thiobenzoate anion (TNB^2−), resulting from the reaction of the thiolate anion (RS^−) with Ellman’s reagent (DTNB^2−) and one mixed disulphide (R-S-TNB^−). […]
(§2) The thioesterase activity of SaDHNA was measured according to a protocol of Rodríguez-Guilbe and co-workers[36]. In a ELISA microplate the formation of 2-nitro-5-thiobenzoate anion (TNB2-) by the reaction of thiolate anion (RS^−) with Ellman′s reagent (DTNB^2−) and one mixed disulphide (R-S-TNB^−) catalysed by purified SaDHNA wild type (WT), D16A and E31N was followed by monitoring the change in absorbance of thionitrobenzoic acid (TNB) at 412 nm (extinction coefficient of 13.600 M^−1 cm^−1) using a TECAN GENios plate reader (XFLUOR4 Version: V 4.40, MTX Lab Systems, Inc, USA). […] In addition, uncatalyzed reaction rates were monitored by the combination of same reagents without the enzyme. […]

HpYbgC = details: in contrast to EcYbgC and HiYbgC; ref [38]; cited from earlier work
Source text: In fact, we observed the presence of a long tunnel associated with the binding site of the acyl moiety of the substrate for HpYbgC, which is ...

SaDHNA D16A = test: Thioesterase activity of SaDHNA D16A mutant (DTNB/TNB, 412 nm); assay type: biochemical, Staphylococcus aureus
Description: as §1, §2

SaDHNA E31N = test: Thioesterase activity of SaDHNA E31N mutant (DTNB/TNB, 412 nm); assay type: biochemical, Staphylococcus aureus; details: stearoyl-CoA as substrate, vs background level
Description: as §1, §2

SaDHNA thioesterase = test: Inhibition of SaDHNA thioesterase activity by peptides; assay type: biochemical, Staphylococcus aureus; details: 100 µM peptide, 10 µM SaDHNA, 50 mM HEPES-K+ pH 7.5, 1 mM DTNB, room temperature, 412 nm; in comparison to control assay without peptides; triplicates
Source text: According to the docking analysis, the protein-peptide complex is mediated mainly through six hydrogen bonds formed between Pep-1 and residues present in the putative active site. The benzoyl ring of the tyrosine of Pep-1 has non-covalent π-stacking interactions with the Try45 benzoyl ring of the SaDHNA structure, as well as with the side chain of Ser55 through a hydrogen bond. The residues important for the substrate binding and activity, Glu31 and Asp16, respectively, are predicted to interact with the amide of the peptide backbone and with the side chain of serine of the peptide via hydrogen bonds as well. […]
The thioesterase activity of SaDHNA was measured according to a protocol of Rodríguez-Guilbe and co-workers[36]. In a ELISA microplate the formation of 2-nitro-5-thiobenzoate anion (TNB2-) by the reaction of thiolate anion (RS^−) with Ellman′s reagent (DTNB^2−) and one mixed disulphide (R-S-TNB^−) catalysed by purified SaDHNA wild type (WT), D16A and E31N was followed by monitoring the change in absorbance of thionitrobenzoic acid (TNB) at 412 nm (extinction coefficient of 13.600 M^−1 cm^−1) using a TECAN GENios plate reader (XFLUOR4 Version: V 4.40, MTX Lab Systems, Inc, USA). […] In addition, uncatalyzed reaction rates were monitored by the combination of same reagents without the enzyme.

SaDHNA = test: Intrinsic (tryptophan) fluorescence quenching of SaDHNA by peptides, Stern–Volmer analysis; assay type: binding, Staphylococcus aureus; details: for bimolecular quenching constant (Kq) / shift of SaDHNA emission spectra maximum / fluorescence intensity of SaDHNA: 60 nM SaDHNA; for bimolecular quenching constant (Kq): 100 mM sodium phosphate pH 6.0, 150 mM NaCl, 22 °C, excitation 290 nm, emission 300–420 nm, peptide 60–1000 nM, from second, slower quenching step, five assays; for shift of SaDHNA emission spectra maximum / fluorescence intensity of SaDHNA: peptide up to 1000 nM, pH 6.0, 22 °C; for shift of SaDHNA emission spectra maximum: maximum emission near 340 nm; for quenching mechanism: from Kq above diffusive limit, complex association between SaDHNA and peptides
Description: Fluorescence spectroscopy was employed to analyse the inhibition of SaDHNA by the aforementioned peptides. The intrinsic fluorescence quenching was assessed for a gradient concentration of Pep-1 and Pep-2. The emission spectra of SaDHNA in buffer only and SaDHNA quenched with different concentrations of Pep-1 and Pep-2 are shown in Fig. 5a,b, respectively. The amino acid sequence of SaDHNA has three tryptophan residues, W29, W79 and W129 and a corresponding maximum emission near 340 nm. […] According to the quenching theory this may indicate a decrease in the lifetime of the excited state, corresponding to an additional rate process that depopulates the excited state and/or the formation of a non-radioactive ground state between the fluorophore and the quencher resulting in a non-fluorescence emission[25],[26].
The Stern–Volmer theory explains the relationship between fluorescence intensity and the presence of a quencher. The data obtained with different concentrations of peptides were analysed independently of the quenching process. Thereby the bimolecular quenching constant (Kq) assigned to the efficiency of quenching and the binding or affinity constant (Ka) for the associated complex were calculated[27],[28]. […] To investigate the quenching process and to estimate Kq and Ka the data from the second and slower step were considered (Fig. 6b,c, respectively). To estimate the bimolecular quenching constant (Kq), the Stern–Volmer quenching constant (Ksv) was determined from the slopes of Io/I versus Q (quencher concentration) (Fig. 6b) and […], which corresponds approximately to the lifetime of a biomolecule fluorophore in the absence of a quenching agent. Therefore, Kq [M^−1 s^−1] for Pep-1 and Pep-2 were 13.3 × 10^12 ± 0.6 × 10^12 and 9.3 × 10^12 ± 1.8 × 10^12, respectively. According to the diffusion controlled quenching theory Kq values close to 1 × 10 ^10 M^−1 s^−1 are associated with a process involving dynamic quenchers, whereas values of Kq larger than the diffusive limit indicate binding interactions between the fluorophore and the quencher.
As the estimated Kq presented higher values than expected for dynamic quenching, we analysed the data applying static quenching theory to estimate the affinity constant Ka for the associated complex. The intercept of log ((Io-I)/I) versus log Q plot (Fig. 6c) is equal to the logarithm of Ka.. Thereby the intercept antilog calculation determines the Ka values for both peptides.
Fluorescence measurements were performed using a Cary eclipse fluorescence spectrophotometer coupled with a peltier temperature control (Agilent, USA). All assays were carried out in 1 mL cuvettes at 22 °C with excitation/emission slits at 20 nm each. The applied excitation wavelength was 290 nm and emission spectra were collected in the range of 300 up to 420 nm in increments of 1 nm. SaDHNA quenching experiments were performed with two peptides (Pep-1: YGSDGR and Pep-2: EGEYE, using a concentration range from 60 up to 1000 nM. SaDHNA at a concentration of 60 nM in 100 mM sodium phosphate buffer pH 6.0, 150 mM NaCl was applied and small volumes of the stock peptide solution were sequentially added to the cuvette for quenching analysis. Each SaDHNA-peptide assay was performed five times. As a control the fluorescence of all buffer and all peptide solutions were measured to correct the observed fluorescence accordingly. The quenching process was assessed by the Stern–Volmer theory.

[4] = molecular target: 1,4-dihydroxy-2-naphthoyl coenzyme A thioesterase from S. aureus (S. aureus); test: other fluorescence titration; quenching of the intrinsic tryptophan fluorescence of 60 nM SaDHNA by peptide added from 60 up to 1000 nM; 100 mM sodium phosphate buffer pH 6.0, 150 mM NaCl, 22 °C; excitation 290 nm; Stern-Volmer and static quenching analysis of the second, slower quenching step

Row | Molecule | SaDHNA thioesterase activity in presence of peptide (in words) (SaDHNA thioesterase) | bimolecular quenching constant (Kq) (SaDHNA) | shift of SaDHNA emission spectra maximum (SaDHNA) | fluorescence intensity of SaDHNA (SaDHNA) | quenching mechanism (SaDHNA) | other results
1 | 1,4-dihydroxy-2-naphthoyl coenzyme A thioesterase from S. aureus |  |  |  |  |  | stoichiometry N [1]: 4; stoichiometry N [2]: 4
2 | C/C=C/C(=O)SCCNC(=O)CCNC(=O)[C@H](O)C(C)(C)COP(=O)(O)OP(=O)(O)OC[C@H]1O[C@@H](n2cnc3c(N)ncnc32)[C@H](O)[C@@H]1OP(=O)(O)O [Crotonyl-CoA (C4:1), crotonyl-CoA] |  |  |  |  |  | Enzymatic activity (specific activity) ([3]; 10 μM enzyme, 50 mM HEPES-K+ pH 7.5, 1 mM DTNB, room temperature, 200 μl, absorbance 412 nm, 100 μM stearoyl-CoA or 1 mM crotonyl-CoA as substrate, triplicates): 0.27 ± 0.002 nmol TNB/min/mg protein
3 | CCCCCCCCCCCCCCCCCC(=O)SCCNC(=O)CCNC(=O)[C@H](O)C(C)(C)COP(=O)(O)OP(=O)(O)OC[C@H]1O[C@@H](n2cnc3c(N)ncnc32)[C@H](O)[C@@H]1OP(=O)(O)O [Stearoyl-CoA (C18:0), stearoyl-CoA] |  |  |  |  |  | higher specific activity toward the extended acyl CoA chain in comparison to the short chain crotonyl-CoA ([3]; stearoyl-CoA vs crotonyl-CoA): 474 fold; activity of HpYbgC towards long acyl chains (HpYbgC): more active; Enzymatic activity (specific activity) (SaDHNA D16A; D16A mutant, 10 μM enzyme, 50 mM HEPES-K+ pH 7.5, 1 mM DTNB, room temperature, 412 nm, 100 μM stearoyl-CoA, triplicates): 0.43 ± 0.02 nmol TNB/min/mg protein; decrease of hydrolysis rate of stearoyl-CoA by the D16A mutant (SaDHNA D16A; D16A vs WT, stearoyl-CoA as substrate): 300 fold; activity of E31N mutant toward stearoyl-CoA (in words) (SaDHNA E31N): no activity was detected above the background level
4 | EGEYE [Pep-2] | no detectable activity | 9.3e+12 ± 1.8e+12 M⁻¹ s⁻¹ | slight blue shift of the emission | decrease in the fluorescence intensity | static mechanism | 
5 | YGSDGR [Pep-1] | no detectable activity | 1.33e+13 ± 6e+11 M⁻¹ s⁻¹ | did not shift the emission spectra maximum | decrease in the fluorescence intensity | static mechanism | higher binding affinity to SaDHNA than Pep-2 (SaDHNA; ratio of Ka, Pep-1 vs Pep-2): 21 fold
6 | B1 |  |  |  |  |  | Kq (bimolecular quenching constant) [4]: 9.3e+12 M⁻¹ s⁻¹

— publication PMC8918352, “Structure and activity of the DHNA Coenzyme-A Thioesterase from Staphylococcus aureus providing insights for innovative drug development” (Scientific Reports, 2022)
